This note sets out measurements from US20170307640A1, “METHODS, KITS AND DEVICES FOR DETECTING BII-SPECTRIN, AND BREAKDOWN PRODUCTS THEREOF, AS BIOMARKERS FOR THE DIAGNOSIS OF NEURAL INJURY” (BANYAN BIOMARKERS, INC., priority 2012, published 2017).

For experiment [1], the system named is βII-spectrin. Nature of the experiment: Effects of calpain and caspase-3 inhibitors on βII-SBDP pattern in challenged cerebrocortical cultures (Western blot). Particulars: for βII-SBDP bands after MTX challenge with inhibitor: 0.5 nM MTX 3 hrs + 20 μM IDN-6556 or 30 μM SNJ-1945; for βII-SBDP bands after NMDA challenge with inhibitor: 300 μM NMDA + 20 μM IDN-6556 or 30 μM SNJ-1945; for βII-SBDP bands after EDTA challenge with inhibitor: EDTA + 20 μM IDN-6556 or 30 μM SNJ-1945, pretreated 1 hr. It is filed as cell-based, rat. As for the experimental part: (§1) All cultures are prepared in quadruplicate. Cerebrocortical cells harvested from 1-day old Sprague-Dawley rat brains are plated on poly-L-lysine coated 6-well culture plates (Erie Scientific, Portsmouth, N.H., USA) according to a previously cited method (Nath et al., 2000) at a density of 4.36×10^5 cells/mL. Cultures are maintained in Dulbecco's modified Eagle's medium (DMEM) with 10% fetal bovine serum in a humidified incubator in an atmosphere of 10% CO2 at 37° C. After 5 days in culture, the media is changed to DMEM with 5% horse serum. Subsequent media changes are performed three times a week. Experiments are performed on days 10 to 11 in vitro when astroglia have formed a confluent monolayer beneath morphologically mature neurons. All animal studies conform to the guidelines outlined in the Guide for the Care and Use of Laboratory Animals from the National Institutes of Health and were approved by the local IACUC.
(§2) Cells are collected and lysed with the same lysis buffer as described above.
(§3) The neuronal lysates are then centrifuged at 15000 g for 5 min at 4° C. to clear and remove insoluble debris, snap-frozen, and stored at −85° C. until use.
(§4) Protein concentrations of culture lysates are determined by bicinchoninic acid microprotein assays (Pierce Inc, Rockford, Ill., USA) with albumin standards. Protein balanced samples are prepared for sodium dodecyl sulfate-polyacrylamide gel electrophoresis (SDS-PAGE) in […] loading buffer containing 0.25 M Tris (pH 6.8), 0.2 M DTT, 8% SDS, 0.02% bromophenol blue, and 20% glycerol in distilled H2O. Twenty micrograms (20 μg) of protein per lane are routinely resolved by SDS-PAGE on 6% Tris/glycine gels (for spectrin protein) and/or 10-20% Tris/glycine gels for 2 hr at 120 V. Following electrophoresis, separated proteins are laterally transferred to polyvinylidene fluoride (PVDF) membranes in a transfer buffer containing 0.50 M glycine, 0.025 M Tris-HC1 (pH 8.3) and 10% methanol at a constant voltage of 20 V for 2 hr at 4° C. in a semi-dry transfer unit (Bio-Rad, Hercules, Calif.).
(§5) Tissue samples (20 μg) are subjected to electrophoresis, equal volumes of samples for SDS/PAGE are prepared in a 2×-fold loading buffer [0.25 M Tris (pH 6.8), 0.2 M DTT, 8% SDS, 0.02% bromophenol blue and 20% glycerol in distilled H2O]. Gels are run at 120 V for 2 hr in a mini-gel unit (Invitrogen Life). Protein bands are transferred to PVDF membrane on a semi-dry Trans-blot unit (Bio-Rad, Hercules, Calif.) at 20 V for 2 hrs. After electrotransfer, blotting membranes are blocked for 1 hr at ambient temperature in 5% non-fat milk in TBST [20 mM Tris/HCl (pH 7.4), 150 mM NaCl and 0.05% (w/v) Tween-20], then incubated with the primary monoclonal antibody in TBST/5% milk. Primary antibodies to be used include mouse anti all-spectrin (Affinity Res. Prod. Nottingham, UK), mouse monoclonal anti βII-spectrin (BD Transduction Laboratories, USA; cat # 612563) and rabbit anti βIII-spectrin (BETHYL Laboratories, Inc. TX, cat # A310-367A). The blots are then washed 3 times for 15 min with TBST and exposed to biotinylated secondary antibodies (Amersham Biosciences, U.K.) followed by a 30 min incubation with streptavidin-conjugated alkaline phosphatase. Colorimetric development is performed with a one-step 5-bromo-4-chloro-3-indolyl phosphate-reagent (Sigma-Aldrich, St. Louis, Mo.). The molecular weights of intact proteins and their potential BDPs are assessed by running along-side rainbow colored molecular weight standards (Amersham Biosciences, U.K.)
(§6) Rat cerebrocortical cell cultures are prepared as described above and treated with calpain inhibitor SNJ-1945 and caspase-3 inhibitor IDN-6556 along with different neurotoxic paradigms (FIG. 3).

Another experiment relates to αII-spectrin. The experiment is described as follows: αII-spectrin breakdown pattern in challenged cerebrocortical cultures with or without inhibitors (Western blot). It is filed as cell-based, rat. Particulars: for αII-spectrin fragments (SBDP-150/SBDP-145, SBDP-120) after NMDA challenge with respective protease inhibitor: 300 μM NMDA + 30 μM SNJ-1945 or 20 μM IDN-6556; for αII-spectrin breakdown products after neurotoxin challenge alone: EDTA, MTX or NMDA alone. As for the experimental part: as §1, §2, §3, §4, §5, §6

Experiment [2] relates to rat cerebrocortical cultures. Nature of the experiment: Neurotoxin challenges of primary cerebrocortical cultures: morphology and βII-spectrin breakdown by Western blot. It is filed as cell-based. Particulars: for degeneration in soma and neurites of neuronal cultures under microscope: MTX at 3 hours, STS, EDTA, NMDA at 24 hours, vs untreated control; for βII-SBDP bands after neurotoxin challenge alone (Western blot): NMDA 300 μM, STS 0.5 μM, EDTA 2 mM, MTX 0.5 nM 3 hrs, no inhibitor. As for the experimental part:
as §1, §2, §3, §4, §5
Alternatively, neuronal cultures are treated with staurosporine (STS) for 24 hours or with NMDA. (FIG. 2)

Experiment [3] deals with βII-spectrin. The experiment is described as follows: βII-spectrin proteolytic fragmentation after brain cortex lysate digestion with calpain-2 and caspase-3. It is filed as biochemical, rat. As for the experimental part: as §5, with “Colorimetric development is performed with a one-step 5-bromo-4-chloro-3-indolyl phosphate-reagent (Sigma-Aldrich, St. Louis, Mo.).” left out

“Also recorded” adds a separate entry of the source.

With `C[C@H](NC(=O)C(=O)Nc1ccccc1C(C)(C)C)C(=O)N[C@@H](CC(=O)O)C(=O)COc1c(F)c(F)cc(F)c1F` [IDN-6556], in the experiment with βII-spectrin [1], the “βII-SBDP bands after MTX challenge with inhibitor” value was “βII-SBDPs of 110 kDa and 85 kDa are observed”; the “βII-SBDP bands after NMDA challenge with inhibitor” value was “much weaker”; the “βII-SBDP bands after EDTA challenge with inhibitor” value is listed as “no βII-SBDPs”. Besides, the “αII-spectrin fragments (SBDP-150/SBDP-145, SBDP-120) after NMDA challenge with respective protease inhibitor” value in the experiment with αII-spectrin is recorded as “strongly inhibited”. Further, the “αII-spectrin caspase-mediated SBDP-120 after EDTA challenge with inhibitor” value in the experiment on αII-spectrin (EDTA + IDN-6556) was “absence”.

`C=CC[C@H](C)[C@H](C)C[C@@H](O)[C@H](O)[C@@H]1CC[C@@]2(C)O[C@@]3(C)C[C@@]4(C)O[C@H]5/C=C\C[C@H]6O[C@H]7C[C@H]8O[C@H]9C[C@@]%10(C)O[C@@](C)([C@@H]%11CC[C@H]%12O[C@@]%13(C)C[C@H]%14O[C@@]%15(C)C[C@H]%16O[C@@]%17(C)C[C@@H](O)[C@H]([C@@H]%18O[C@H]%19[C@H](O)[C@@H](O)[C@H](C[C@H](O)C[C@@H](O)[C@@H]%20O[C@H]%21[C@H](O)[C@@H](O)[C@H]([C@@H]%22O[C@@H]%23[C@H](O)[C@H]%24O[C@H]%25C[C@H]%26O[C@@H](C[C@H](O)[C@@H](O)[C@H]%27O[C@H]%28[C@H](O)[C@H]%29O[C@H]%30C[C@H]%31O[C@H]%32[C@@H](O)[C@@H](O)[C@H]([C@H](C)[C@H](O)[C@H](C)CC[C@H](OS(=O)(=O)O)[C@H](O)[C@H](C)C[C@@H](O)C(=C)/C(C)=C/CO)O[C@@H]%32[C@H](O)C[C@]%31(C)O[C@@H]%30C[C@]%29(C)O[C@@H]%28C[C@H]%27O)[C@H](OS(=O)(=O)O)[C@H](O)[C@@H]%26O[C@@H]%25C[C@@H]%24O[C@H]%23[C@H](O)[C@H]%22O)O[C@H]%21C[C@H]%20O)O[C@H]%19C[C@H]%18O)O[C@@H]%17[C@H](O)[C@]%16(C)O[C@@H]%15CC[C@]%14(C)O[C@@H]%13C[C@@H]%12O%11)[C@H](O)C[C@@H]%10O[C@]9(C)CC[C@]8(C)O[C@]7(C)C[C@@H]6O[C@@H]5C[C@@H]4O[C@@H]3C[C@@H]2O1` [MTX, maitotoxin]: in experiment [2], the “degeneration in soma and neurites of neuronal cultures under microscope” value (“degeneration in soma and neurites” below) is given as “significant degeneration”; the “βII-SBDP bands after neurotoxin challenge alone (Western blot)” value (“βII-SBDP bands … (Western blot)” for short) is “strong βII-SBDPs of 110 kDa and 85 kDa bands; also recorded: βII-SBDPs of 110 kDa and 85 kDa are observed”. Also, the “αII-spectrin breakdown products after neurotoxin challenge alone” value in the experiment on αII-spectrin was “presence of the prominent calpain-mediated SBDP-145 kDa band”. In addition, the “βII-SBDPs generated by EDTA and MTX treatments used as controls for apoptotic and necrotic injury” value with βII-spectrin [3] (brain lysates treated with MTX and EDTA, comparators in FIG. 8) is 110/85.

Turning to `CN[C@H](CC(=O)O)C(=O)O` [NMDA, N-methyl-D-aspartate], in experiment [2], the “degeneration in soma and neurites” value is recorded as “significant degeneration”; the “βII-SBDP bands … (Western blot)” value was “dominant signal of calpain-mediated βII-spectrin breakdown product (βII-SBDP) of 110 kDa and 85 kDa, with minimal caspase mediated βII-SBDP of 108 kDa and 80 kDa; also recorded: presence of all the βII-SBDPs (110, 108, 85 and 80 kDa)”. Also, in the experiment on αII-spectrin, the “αII-spectrin breakdown products after neurotoxin challenge alone” value is “prominent calpain-mediated SBDP-150/SBDP-145, with minor bands of caspase-3-mediated SBDP-120”.

For `COCCOCCOC(=O)N[C@@H](CC(C)C)C(=O)N[C@@H](Cc1ccccc1)C(=O)C(=O)NC1CC1` [SNJ-1945], in the experiment on βII-spectrin [1], the “βII-SBDP bands after MTX challenge with inhibitor” value is recorded as “no βII-SBDPs observed”, the “βII-SBDP bands after NMDA challenge with inhibitor” value is listed as “only βII-SBDP-108 kDa band” and the “βII-SBDP bands after EDTA challenge with inhibitor” value is listed as “strong βII-SBDP 108 kDa/weak 80 kDa bands”. Moreover, in the experiment with αII-spectrin, the “αII-spectrin fragments (SBDP-150/SBDP-145, SBDP-120) after NMDA challenge with respective protease inhibitor” value is given as “strongly inhibited”. The “αII-spectrin calpain-mediated SBDP-145 after MTX challenge with inhibitor” value in the experiment with αII-spectrin (MTX + SNJ-1945) was “absence”.

Turning to `CN[C@@H]1C[C@H]2O[C@@](C)([C@@H]1OC)n1c3ccccc3c3c4c(c5c6ccccc6n2c5c31)C(=O)NC4` [STS, staurosporine], in experiment [2], the “degeneration in soma and neurites” value is listed as “significant degeneration”; the “βII-SBDP bands … (Western blot)” value was “two prominent βII-SBDP bands of 108 kDa and 80 kDa”.

B1: Calpain: purified protease human calpain-2 (BD Bioscience; Catalogue no. 208715) (protein, UniProt P17655 20-700, looked up)
Calpain-2 catalytic subunit: SHDRAIKYLNQDYEALRNECLEAGTLFQDPSFPAIPSALGFKELGPYSSKTRGIEWKRPTEICADPQFIIGGATRTDICQGALGDCWLLAAIASLTLNEEILARVVPLNQSFQENYAGIFHFQFWQYGEWVEVVVDDRLPTKDGELLFVHSAEGSEFWSALLEKAYAKINGCYEALSGGATTEGFEDFTGGIAEWYELKKPPPNLFKIIQKALQKGSLLGCSIDITSAADSEAITFQKLVKGHAYSVTGAEEVESNGSLQKLIRIRNPWGEVEWTGRWNDNCPSWNTIDPEERERLTRRHEDGEFWMSFSDFLRHYSRLEICNLTPDTLTSDTYKKWKLTKMDGNWRRGSTAGGCRNYPNTFWMNPQYLIKLEEEDEDEEDGESGCTFLVGLIQKHRRRQRKMGEDMHTIGFGIYEVPEELSGQTNIHLSKNFFLTNRARERSDTFINLREVLNRFKLPPGEYILVPSTFEPNKDGDFCIRVFSEKKADYQAVDDEIEANLEEFDISEDDIDDGFRRLFAQLAGEDAEISAFELQTILRRVLAKRQDIKSDGFSIETCKIMVDMLDSDGSGKLGLKEFYILWTKIQKYQKIYREIDVDRSGTMNSYEMRKALEEAGFKMPCQLHQVIVARFADDQLIIDFDNFVRCLVRLETLFKIFKQLDPENTGTIELDLISWLCFSVL
On to B1, for which, in the experiment with βII-spectrin [3] (intact 260 kDa βII-spectrin, calpain-2 25° C. 30 min, caspase-3 37° C. 4 hrs), the “βII-SBDPs generated by in vitro protease digestion of cortical tissue lysate” value is “prominent 110 and 85 kDa βII-SBDPs in addition to a number of non-specific high molecular bands”.
